Entries after “also recorded” stand apart in the source; their conditions may differ.
How the values were obtained:
[1] = cited from earlier work
[2] = tested on: ulcerative colitis or proctitis; test: Randomised double-blind 16 week maintenance trial in colitis: relapse; format: in vivo, patients
Method: Seventy-two patients who were in remission with ulcerative colitis or proctitis and taking at least 4 sulphasalazine tablets each day gave their informed consent to a clinical trial. Remission was defined as the passage of three or fewer stools each day without blood or slime during the previous month. Thirty-six patients were male and 36 female. Sigmoidoscopy with rectal biopsy was performed initially and patients only entered the trial if the mucosa was normal (grade 1) or oedematous (grade 2). Biopsies were coded and reviewed by a pathologist who graded them as 1 (normal) or grades 2, 3 or 4 representing mild, moderate or severe inflammatory change.
At least 3 tablets of 5-ASA were taken daily (1200 mg) with an increased dose of 1 tablet for each gram of sulphasalazine above the minimum entry dose of 2 grams for patients taking a high dose of sulphasalazine. […]

[3] = in vivo
Method: Patients completed diary cards throughout 16 weeks and were asked to note any side effects; they were seen after 4, 12 and 16 weeks. On completion of the trial a further sigmoidoscopy was performed to ensure the muscosa appeared normal. Patients were seen promptly if symptoms recurred and a sigmoidoscopy was performed at that time. A relapse was defined as a recurrence of symptoms with increased stool frequency and blood loss with sigmoidoscopic changes of contact or spontaneous mucosal haemorrhage (grade 3) or the presence of pus with bleeding and ulceration (grade 4). Blood was taken for a routine blood count and examination of the film at each clinic attendance and measurements of the serum electrolytes and liver function tests were performed initially and after 16 weeks. The study, which was randomised and double-blind in design, involved using identical placebo tablets for both sulphasalazine and 5-ASA; each patient was given two sets of tablets with either active 5-ASA and placebo sulphasalazine or placebo 5-ASA and active sulphasalazine. The patient's usual dose of sulphasalazine was continued with a minimum dose of 2 grams daily. The tablets of 5-ASA contained 400 mg (ie the amount of 5-ASA contained in 1 gram of sulphasalazine). […] Compliance was checked at each hospital visit by counting the number of tablets returned. […]

[4] = tested on: colitis, Crohn's disease, idiopathic proctitis and chronic arthritis; settings: in vivo; cited from earlier work
[5] = Serum sulphapyridine levels after ingestion of coated capsules (HPLC)
Method: Six convalescent patients, 3 male and 3 female with a mean age of 57 years, from a general medical ward gave informed consent to a clinical trial. […] The thickness of the coat was checked using a micrometer to establish the range of thickness and to measure both the wide and narrow end of the capsule. Each capsule contained barium sulphate (300 mg) potato starch (20 mg) and sulphapyridine (300 mg) as a convenient marker Plain abdominal X-rays were taken at 5, 8 and 12 hours after ingestion and blood samples at 0, 3, 5, 7, 9, 12 and 24 hours after ingestion to assay sulphapyridine levels.
Sulphapyridine was analysed by high pressure liquid chromotography (HPLC) using a modification of the method described by Shaw et al (J. Pharm. Pharmacol. 1980;32;67). The analysis was performed on a LiChrosorb 10 RP 18 bonded silica reversed phase column (Merck). The mobile phase was acetonitrile--0.05M potassium dihydrogen phosphate solution (20:80) containing 0.1 per cent tetrabutyl ammonium hydroxide. Sulphapyridine was detected spectrometrically at 260 nm. Serum samples were treated with an equal volume of ethanol to precipitate plasma proteins and after centrifugation, the supernatant was injected on to the chromatograph. Sulphapyridine concentration was read directly from a calibration curve which was linear over the range 1-25 μg/ml (R=0.99).

| Structure (SMILES) | clearance / excretion ([1]; in vivo) | serum levels ([1]; in vivo) | significance of difference in relapses between 5-ASA and sulphasalazine ([2]; chi squared) | side effects (headache, nausea or indigestion), comparison between groups [3] | usefulness in treatment [4] | absorption after oral administration [1] | drug detected in serum 3 hours after ingestion ([5]; 3 hours, any patient) | time of maximal serum levels ([5]; human, in vivo) | patients with drug detected in serum 5 hours after ingestion ([5]; in vivo) [patients] | Relapses ([2]; 16 weeks, 34 patients on 5-ASA (coated tablets, at least 1200 mg daily), 33 on sulphasalazine (minimum 2 grams daily)) [patients] |
| --- | --- | --- | --- | --- | --- | --- | --- | --- | --- | --- |
| Nc1ccc(O)c(C(=O)O)c1 [Example 5-ASA, 5-amino-salicylic acid] | excreted rapidly after acetylation | very low | not statistically significant; also recorded: p = NS | no difference | pharmacologically active agent in the treatment of colonic and rectal ailments |  |  |  |  |  |
| Nc1ccc(S(=O)(=O)Nc2ccccn2)cc1 [sulphapyridine] | slowly cleared from the serum |  |  |  |  | almost entirely absorbed from the small intestine before reaching the colon | No drug was detected | 12 or 24 hours after ingestion | 2 |  |
| O=C(O)c1cc(/N=N/c2ccc(S(=O)(=O)Nc3ccccn3)cc2)ccc1O [sulphasalazine, Salicylazosulphapyridine] |  |  |  | no difference | useful in the treatment of colitis, Crohn's disease, idiopathic proctitis and chronic arthritis | only absorbed to a limited extent before reaching the colon |  |  |  | 6 |

From patent US5541171A, “Orally administrable pharmaceutical composition” (priority 1981, dated 1996)
